Our source for the ED50 values is patent publication US5321023A, “Pyridoindolobenzodiazepines and derivatives as antipsychotics” (The Du Pont Merck Pharmaceutical Co., priority 1992, dated 1994).

As usually defined, the ED50 is the midpoint of the dose-response relation.

The assay has as its system rat. In words: Conditioned Avoidance Responding in Rat. The settings on record: inhibition of conditioned avoidance responding, oral, tested 30-360 minutes after administration, % of vehicle control, read-out: Peak ED50. It counts as in vivo, rat (male CDF). The source says:
Conditioned Avoidance Responding in Rat
The procedure utilized is a modification of the procedure of Cook and Weidley (Ann. NY Acad Sci.66: 740-752, 1957).
Apparatus: A Coulbourn Instruments large modular test cage (25×30×30 cm) with a pole suspended from the center of the ceiling and a stainless steel grid floor. A 0.75 mA pulsed current (250 msec on, 750 msec off) is delivered to the grid floor by a Coulbourn Instruments programmable shocker.
Animals: Male CDF rats are purchased from Charles River Breeding Laboratories (Wilmington, Mass.).
Test Procedure: Each trial lasts 25 seconds. Ten seconds after the rat is placed in the testing apparatus, footshock is delivered for 15 seconds. The rat is immediately removed from the testing apparatus. If the rat climbs the pole within the first 10 seconds, footshock is avoided and an avoidance response is recorded. If the rat climbs the pole during the footshock period, an escape response is recorded. If the animal fails to climb the pole during the 25 second trial period, an escape failure is recorded.
Drug testing is initiated after rats are well trained to consistently avoid footshock. Rats are tested for conditioned avoidance responding at various time intervals (30-360 minutes) after oral administration of test compound.
For each dose of test compound, inhibition of conditioned avoidance responding is expressed as a percentage of the corresponding Drug Vehicle (control) value. The percent antagonism is used to calculate ED50 values when appropriate.

For `Cc1cc2c3c(c1)c1c(n3-c3ccc(Cl)cc3NC2=O)CCN(C)C1` [Example 1, 11-chloro-1,2,3,4,8,9-hexahydro-3,6-dimethylpyrido[4',3':2,3]indolo[1,7-ab][1,5]benzodiazepin-8(9H)-one], the 50% effective dose (ED50) was at most 20 mg/kg.

`Cc1cc2c3c(c1)c1c(n3-c3ccc(C(F)(F)F)cc3NC2=O)CCN(C)C1` [Example 3]: the ED50 was 20 to 50 mg/kg.

As to `Cc1cc2c3c(c1)c1c(n3-c3ccc(Cl)cc3NC2)CCN(C)C1` [Example 23, 11-chloro-1,2,3,4,8,9-hexahydro-3,6-dimethylpyrido[4',3':2,3]indolo[1,7-ab][1,5]benzodiazepine], the ED50 was at most 20 mg/kg.

With `Cc1cc2c3c(c1)c1c(n3-c3ccc(C(F)(F)F)cc3NC2)CCN(C)C1` [Example 25], the ED50 was at most 20 mg/kg.
